Common to all, as to assay type: in vivo
One test deals with Avena fatua (AVEFA). Put plainly: Test 1A glasshouse assay, post-emergence herbicidal activity. Particulars: 312 h, 13 days after application, read-out: Post-Emergence Herbicidal Activity (% Phytotoxicity) AVEFA. As to the method:
(§1) Seeds of a variety of test species are sown in standard soil (usually sandy soil) in pots. After cultivation for one day (pre-emergence) or after 8 days cultivation (post-emergence) under controlled conditions in a glasshouse (at 24/16° C., day/night; 14 hours light; 65% humidity), the plants are sprayed with an aqueous spray solution derived from the formulation of the technical active ingredient (compound) in acetone/water (50:50) solution containing 0.5% Tween 20 (polyoxyethylene sorbitan monolaurate, CAS RN 9005-64-5). The test plants are then grown under controlled conditions in a glasshouse (at 24/16° C., day/night; 14 hours light; 65% humidity) and watered twice daily. 13 days after application of the test compounds, for pre- and post-emergence, the test is evaluated visually for percentage phytotoxicity to each plant (where 100%=total damage to plant; 0%=no damage to plant).
(§2) Lolium perenne (LOLPE), Triticum aestivum (TRZAW, winter wheat, variety ‘Hereward’), Alopecurus myosuroides (ALOMY), Echinochloa crus-galli (ECHCG), and Avena fatua (AVEFA). All these are grassy monocotyledonous weeds and/or (for wheat) grassy crops.

Test [1] has as its system Triticum aestivum (TRZAW, winter wheat, variety ‘Hereward’). The description is as above. Particulars: 312 h, 13 days after application, read-out: Post-Emergence Herbicidal Activity (% Phytotoxicity) TRZAW. On the procedure: as §1, §2
A further test deals with Lolium perenne (LOLPE). The test is described as above. Particulars: 312 h, 13 days after application, read-out: Post-Emergence Herbicidal Activity (% Phytotoxicity) LOLPE. On the procedure: as §1, §2
In test [2] the test system is Cloquintocet-mexyl seed-treated Winter Wheat (variety ‘Hereward’). Put plainly: Test 1B glasshouse assay, post-emergence phytotoxicity on winter wheat whose seed has been treated with cloquintocet-mexyl. Particulars: Triticum aestivum, 312 h, seed treated with cloquintocet-mexyl 0.5 g/kg dry seed, 13 days after application, read-out: Post-Emergence Herbicidal Activity (% Phytotoxicity) Cloquintocet-mexyl seed-treated Winter Wheat (variety ‘Hereward’). As to the method: Seeds of the Winter Wheat variety ‘Hereward’ were seed treated with a wettable powder formulation of the cereal herbicide safener, cloquintocet-mexyl, at a rate of 0.5 grams per kilogram of dry seed, prior to the initiation of glasshouse testing. Three seeds were sown per 1.5 inch plastic pot into a standard soil (usually sandy soil) at a depth of 1 cm, prior to application of the test compounds and were watered and grown under controlled conditions in a glasshouse (at 24/16° C., day/night; 14 hours light; 65% humidity). After 8 days cultivation under these controlled conditions, the plants were sprayed post-emergence with an aqueous spray solution derived from the formulation of the technical active ingredient (compound) in acetone/water (50:50) solution containing 0.5% Tween 20 (polyoxyethylene sorbitan monolaurate, CAS RN 9005-64-5). The test plants were then grown on in a glasshouse under controlled conditions (at 24/16° C., day/night; 14 hours light; 65% humidity) and watered twice daily. 13 days after application of the test compounds, the test was evaluated visually for percentage phytotoxicity to each plant (where 100%=total damage to plant; 0%=no damage to plant).

For test [3], the system named is Winter Wheat (variety ‘Hereward’). In words: Test 1B glasshouse assay, post-emergence phytotoxicity on winter wheat. Particulars: Triticum aestivum, 312 h, 13 days after application, read-out: Post-Emergence Herbicidal Activity (% Phytotoxicity) Winter Wheat (variety ‘Hereward’). As to the method:
Seeds of the Winter Wheat variety ‘Hereward’ were sown in standard soil (usually sandy soil) in pots. After 8 days cultivation under controlled conditions in a glasshouse (at 24/16° C., day/night; 14 hours light; 65% humidity), which is post-emergence, the plants were sprayed with an aqueous spray solution derived from the formulation of the technical active ingredient (compound) in acetone/water (50:50) solution containing 0.5% Tween 20 (polyoxyethylene sorbitan monolaurate, CAS RN 9005-64-5). The test plants were then grown on in a glasshouse under controlled conditions (at 24/16° C., day/night; 14 hours light; 65% humidity) and watered twice daily. 13 days after application of the test compounds, the test was evaluated visually for percentage phytotoxicity to each plant (where 100%=total damage to plant; 0%=no damage to plant).

Regarding `CC#Cc1cc(C)c(C2C(=O)C(Cc3ccccn3)N(C)C2=O)c(C)c1` (stereo not drawn) [Compound A50, 3-(2,6-dimethyl-4-prop-1-ynyl-phenyl)-1-methyl-5-(2-pyridylmethyl)pyrrolidine-2,4-dione], the inhibition at 15.625 g/ha in the test on Avena fatua (AVEFA) (15.625 g/ha) is 50%; in test [1] (15.625 g/ha), 30%; in the test on Lolium perenne (LOLPE) (15.625 g/ha) it was 40%; in test [2] (15.625 g/ha) it was 0%; in test [3] (15.625 g/ha), 30%. Further, the inhibition at 62.5 g/ha was found to be 70% in the test with Avena fatua (AVEFA) (62.5 g/ha); 70% in test [1] (62.5 g/ha); 70% in the test with Lolium perenne (LOLPE) (62.5 g/ha); 40% in test [2] (62.5 g/ha); 70% in test [3] (62.5 g/ha). In addition, the inhibition at 250 g/ha in the test with Avena fatua (AVEFA) (250 g/ha) was found to be 100%; in test [1] (250 g/ha), 80%; in the test on Lolium perenne (LOLPE) (250 g/ha) it was 100%; in test [2] (250 g/ha) it was 60%; in test [3] (250 g/ha) it was 80%.

For the origin of these results see patent US20160219881A1, “HERBICIDALLY ACTIVE 2-HALOGEN-4-ALKYNYL-PHENYL-PYRAZOLIDINE-DIONE OR PYRROLIDINE-DIONE DERIVATIVES” (SYNGENTA LIMITED, priority 2013, published 2016).
